Data reported in US20250009843A1, “COMPOSITIONS AND METHODS FOR TREATMENTS BY MODULATION OF EXCITABLE TISSUES ACTIVITIES, AND FOR ANTIMICROBIAL APPLICATIONS” (priority 2021, published 2025).

What was measured:
[1] = test system: dorsal root ganglia (DRG) (sensory) neurons; conditions: literature value; cited from earlier work
[2] = test system: dorsal root ganglia (DRG) (sensory) neurons; assay: Single cell patch clamp on DRG neurons (sodium current, action potentials); type: cell-based, rat
Method: Dorsal Root Ganglia (DRG) sensory neurons were extracted from […] (Cdram). The DRG explants were dissected from the cervical and thoracic regions of the spine of neonatal rat pups (P5) and placed in cold HBSS (lx) without Ca^2+/Mg^2+ (Invitrogen, USA). After cleaning the remnants of peripheral nerve processes, DRGS were seeded in 12-well glass-coated laminin plates. Cells were feed every 2/3 days and they were processed for single cell patch clamping.
Whole cell patch clamp configuration was used to record from 100 day iPSC derived neurons and DRG neurons. […]
Recordings were made using the EPC10 patch clamp amplifier from HEKA. Voltage-dependent Na^+ and K^+ currents were recorded in voltage clamp mode from a holding potential of −70 mV; voltage step depolarization was applied up to +20 mV in 10 mV increments and recorded for 200 ms. All data were recorded unfiltered for voltage and current clamp recording at 50.0 kHz and 20.0 kHz, respectively.
Intrinsic firing properties of neurons were recorded in current clamp mode, with step current injections from a holding value of −5 pA up to +45 pA, for 500 ms, in 10 pA increments. Spontaneous action potential (AP) was recorded in current clamp mode at zero current injection (resting membrane potential) just after whole cell configuration was achieved. […]

[3] = test system: TRPV1 pathway in cortical neurons; assay: Calcium imaging of cortical neurons (capsaicin, glutamic acid); type: cell-based; conditions: 1 μg/ml
Method: TRPV1 channels on neurons open in response to stimuli like capsaicin. Once open cations like calcium flow into the cell, which triggers action potentials and the sensation of pain. Cells tested were cortical neurons, n=3 unless noted. Panel A: Calcium imaging is used to measure calcium flow across neural cell membranes. Cells treated in sequence with no chemical (control), PLA (1.9 kDa at 1 μg/ml), capsaicin, and then glutamic acid. […] This is an effect seen by TRPV1 agonists that are used as analgesics such as capsaicin.

DRG cells = assay: Microelectrode Array (MEA) electrical activity of capsaicin-stimulated DRG cells; type: cell-based; conditions: dose range 10-1000 μg/ml; FIG. 3B
DRGs = type: cell-based; conditions: 24-72 hours, 2.5 mg/ml of HA or equivalent
Method: (§1) FIG. 4: Data of the effect of various peptide drug embodiments and peptide alone on metabolic activity and viability of cell types (DRG: dorsal root ganglion; hChon: human normal chondrocytes; OA: human OA chondrocytes). n=3 in all cases; all tested at 2.5 mg/ml of HA or equivalent using gram:gram ratio (See Table). Details on test materials given in below table. […] Panel B: Viability assessed using Live/Dead assay. No significant difference between peptide drug at 24-72 hours in DRGs compared to control.

S. epidermis = assay: Kirby-Bauer disk diffusion susceptibility test; type: cell-based; conditions: BP12P03 1-10 mg/ml; PLA 0.5 mg/ml
Method: (§2) Hyaluronic acid (2.2-2.4 MDa) or PEG (10 kDa) was used as base polymer conjugated to Poly-L-Arginine (1.9 kDa or 15-70 kDa) as the AMP in varying mass/mass ratios of conjugation, and at different concentrations. Controls included empirical admixtures of the polymer/AMP as well as just the polymer or AMP.
(§3) Principle: Disks were saturated with antimicrobial test material and place on agar seeded with microbe. test material diffuses out and after incubation diameter of the clear zone is proportional to potency against the microbe. BP12P03 at 1 mg/ml −10 mg/ml; PLA (1.9 kDA) at 0.5 mg/ml were tested. Microbes used were S. aureus, S. epidermis and E. coli.

S. aureus = assay: Kirby-Bauer disk diffusion susceptibility test; type: cell-based; conditions: BP12P03 1-10 mg/ml; PLA 0.5 mg/ml
Method: as §2, §3

E. coli [4] = assay: Kirby-Bauer disk diffusion susceptibility test; type: cell-based; conditions: BP12P03 1-10 mg/ml; PLA 0.5 mg/ml
Method: as §2, §3

E. coli [5] = assay: Optical density assay of antimicrobial effect; type: cell-based; conditions: for E. coli growth (optical density as percentage of control): 16 hours incubation, polymers and conjugates 1-5 mg/ml, PLA 0.01-0.5 mg/ml
Method: As an example of this Hydrobloc prototypes and PLA 1.9 kDa at various concentrations were incubated with E. coli in wells. If microbial growth occurs, then the optical density increases reflecting the colloidal nature of bacterial cells. As a control a blank well is prepared containing growth medium and saline. The results after 16 hours incubation are presented in the figure as a percentage of control. Panel A: Optical density results for various Hydrobloc prototypes and related test materials.
as §2
Principle: Antimicrobial test materials added to wells at various concentrations, wells seeded with microbe. Microbial growth increase the optical density (OD)—assay monitors ability of microbe to grow in presence of test material. […] The microbe used was E. Coli. The results are shown in FIG. 13 with the values presented as a percentage of control (blank). […] The OD is ˜≤0.0 at all concentrations (0.01-0.5 mg/ml). Overall statistical significance is seen with 0.25 mg/ml and 5 mg/ml.

cortical neurons = assay: Patch clamp of cortical neurons (sodium current); type: cell-based; conditions: 1 μg/ml; FIG. 10C
[6] = test system: DRG: dorsal root ganglion; hChon: human normal chondrocytes; OA: human OA chondrocytes; type: cell-based; conditions: 24-72 hours; 2.5 mg/ml of HA or equivalent by gram:gram ratio; three cell types
Method: as §1

## CCN(CC)CC(=O)Nc1c(C)cccc1C [Lidocaine]
[1]
  Reduction of sodium current reported in the literature: 38%

## NC1=N[C@H](O)[C@H]2[C@H]3O[C@]4(O)O[C@@H]([C@@H](O)[C@@]2(N1)[C@@H]4O)[C@]3(O)CO [TTX, tetrodotoxin]
[2]
  Percentage reduction of sodium current (control): approximately 99%

## Poly-L-Arginine [PLA 1.9 kDa]
[3]; cortical neurons, n=3
  Capsaicin (TRPV1 pathway) response: blocks the capsaicin (TRPV1 pathway response)
[3]; glutamic acid after capsaicin
  Glutamate response: glutamate response is unaffected
DRG cells
  Concentration at which most suppression of spike count is seen: 10 µg/mL
DRGs
  Viability (Live/Dead): best viability profile
S. epidermis
  Activity in disk diffusion: activity against all tested species
S. aureus
  Activity in disk diffusion: activity against all tested species
E. coli [4]
  Activity in disk diffusion: activity against all tested species
E. coli [5]
  E. coli growth (optical density as percentage of control): potent giving quantifiable antimicrobial effects at all concentrations tested
E. coli [5]; listed as PLA
  E. coli growth (optical density as percentage of control): very potent
E. coli [5]; all concentrations (0.01-0.5 mg/ml)
  Optical density (OD): ≤ 0.0
Cortical neurons
  Block of sodium current: time dependent effect—getting stronger with time

## Poly-L-arginine hydrochloride [Hydrobloc C01]
DRGs
  Viability (Live/Dead): negatively affect viability
[6]
  Metabolic activity (Alamar Blue): negatively affect metabolic activity
